Data from the METLIN SMRT retention time set (Domingo-Almenara et al. 2019).

assay: gradient 5% acetonitrile 3 min, to 50% in 2 min, to 85% in 15 min, held 3 min, 100 µL/min; conditions: column: Zorbax Extend-C18 2.1 x 50 mm; eluents: water / acetonitrile, 0.1% formic acid
Procedure, shortened: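 A Zorbax Extend-C18 column (2.1 × 50 mm, 1.8 μm) run at 100 μL/min with water and acetonitrile, both containing 0.1% formic acid, separated mixtures of ~100 pure standards. The HPLC was coupled to a quadrupole time-of-flight mass spectrometer operated in positive and negative ionization mode, with dead and dwell volumes of 40 μL and 900 μL. Each retention time was taken from a computationally picked adduct peak that was then manually inspected.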

SMILES | RP-LC retention time
O=C(CN1C(=O)CCC1=O)N1CC(c2nc(-c3cccc(C(F)(F)F)c3)no2)C1 | 754 s
COC(=O)c1scc(-c2ccc(C)cc2)c1S(=O)(=O)N1CCN(c2ccccn2)CC1 | 807 s
O=S(=O)(c1ccc2nncn2c1)N(Cc1ccccc1)c1cccc(F)c1 | 851 s
COCCNC(=O)c1cc2c(n(-c3ccc(C(F)(F)F)cc3)c1=O)CCCC2=O | 786 s
CC1(C)COc2ccc(NC(=O)c3c(F)cccc3Cl)cc2NC1=O | 810 s
COc1ccc(-c2noc(N3CCC(N4CCCCC4)CC3)n2)cc1OC | 590 s
O=C(NCCN1CCCCC1)c1cc2c(s1)CCN(C(=O)c1ccc(Cl)cc1)C2 | 650 s
O=C(NCC1CCCO1)c1nnc(-c2ccc(S(=O)(=O)N3CCCCC3)cc2)o1 (stereo unspecified) | 797 s
Cc1oc(-c2ccc(C(=O)NCCN3CCOCC3)cc2)nc1CN1CCc2ccccc21 | 690 s
Cc1c(Cn2c(C)nc3c(C(=O)O)cc(N4CCOCC4)cc32)cccc1C(F)(F)F | 741 s
CC(C)S(=O)(=O)c1cccc(-c2nnc(N)o2)c1 | 589 s
COC(=O)c1ccc(NC(=O)NCc2noc3ccc(C)cc23)cc1 | 868 s
Cc1ccc(Sc2nccnc2N2CCCC(C(=O)NC3CCCCCC3)C2)cc1 (stereo unspecified) | 1250 s
Cc1ccc(Cl)cc1NC(=O)CSc1nnc2c3cc(-c4ccc(F)cc4)nn3ccn12 | 618 s
Cc1nn(-c2ccc(C(=O)NCc3cccs3)cc2)c2c1C(=O)CC(C)(C)C2 | 841 s
CSc1ccc(-c2nc3cnccn3c2Nc2ccc(C(C)C)cc2)cc1 | 1160 s
CC(C)c1noc(-c2cc(=O)n(CC(=O)Nc3ccc(F)c(F)c3)c3ccccc23)n1 | 1040 s
CCOC(=O)c1cccc(NC2=NS(=O)(=O)C(c3ccc(OC)cc3)=C2C)c1 | 965 s
Cc1cccc2c(=O)n(C3CCN(S(=O)(=O)c4ccc(F)cc4F)CC3)cnc12 | 904 s
COc1ccccc1NC(=O)CSc1nc2ccccc2c(=O)n1C1CCCCC1 | 1230 s
CC(C)(Oc1ccc(Cl)cc1)C(=O)N1CCN(CC(O)c2cccs2)CC1 (stereo unspecified) | 603 s
CC1Oc2ccccc2N(Cc2nc(-c3ccc(F)c(Cl)c3)no2)C1=O (stereo unspecified) | 1190 s

SMILES | RP-LC retention time
O=C(Cc1ccccc1)NCc1nc(-c2cccc(-c3csc(C4CC4)n3)c2)no1 | 1070 s
CO[C@H]1C(=O)N(C(C)C)[C@H]1C1CCN(S(=O)(=O)Cc2ccccc2)CC1 | 829 s
CN(C)C(=O)c1ccc2c(c1)nc(CN1CCN(C(=O)c3ccco3)CC1)n2C | 575 s
O=C(NCC1CCOCC1)Nc1ccc(Cl)cc1 | 705 s
CCc1nc2onc(C)c2c(=O)n1CC(=O)NCCC1=CCCCC1 | 899 s
CC(C)CNC(=O)c1ccc(CN2CCN(Cc3ccccc3)C(=O)C2=O)cc1 | 721 s
CCc1nncn1C1CCN(S(=O)(=O)c2ccc(OC)cc2)CC1 | 668 s
O=C(CN1CCN(C(=O)Nc2ccc(Br)cc2)CC1=O)NCc1ccco1 | 718 s
Cc1cccc(NC(=O)Nc2c(-c3cccc(C)c3)nc3ccccn23)c1 | 716 s
Cc1c(C(=O)N2CCOc3ccc(-c4ccc(N)nc4)cc3C2)ccc(S(C)(=O)=O)c1F | 643 s
COc1ccc(-c2csc(Nc3ccccc3)n2)cc1 | 1070 s
CCOC(=O)c1c(N)n(-c2ccccc2)c2nc3ccccc3nc12 | 683 s
O=C(Cc1ccc(Cl)cc1)NC1CCN(c2nnc3ccccn23)CC1 | 656 s
O=C(NC1CC1)c1ccc2ccnc(N3CCN(c4ccc(F)cc4)CC3)c2c1 | 688 s
CC(C)c1cc(C2NNC(=O)N2c2ccc3c(ccn3C)c2)c(O)cc1O (stereo unspecified) | 796 s
O=S(=O)(c1cc(-c2nnc(C3CCCC3)o2)co1)N1CCCCC1 | 1000 s
Cc1cccc(-c2noc(CN3N=NC4C(=O)N(c5ccc(F)cc5)C(=O)C43)n2)c1 (stereo unspecified) | 1020 s
CCCN1CCN(S(=O)(=O)c2cc(-c3[nH]ncc3C(=O)N(C)C)oc2C)CC1 | 566 s
CCOc1cc(C(=O)NC2CCN(c3cc(-c4ccc(OC)cc4)[nH]n3)C2)cc(OCC)c1OCC (stereo unspecified) | 806 s
O=C(Nc1ccc(Cl)cc1)C1CCCN(S(=O)(=O)c2c[nH]c(C(=O)N3CCCC3)c2)C1 (stereo unspecified) | 862 s
CCCNC(=O)CC1CCN(C(=O)c2[nH]c(C)c(C(=O)OCC)c2C)CC1 | 683 s
Cc1nnc(NC(=O)CN2CCCCC2c2nc(C3CC3)no2)s1 (stereo unspecified) | 755 s

SMILES | RP-LC retention time
O=C(c1ccccc1F)N1CCN(C(=O)c2nnn3c2COC(c2ccc(Cl)cc2)C3)CC1 (stereo unspecified) | 914 s
CC(C)CCNS(=O)(=O)c1cccc(-c2nc(-c3ccccc3)no2)c1 | 1230 s
Cc1ccccc1N1CCN(c2ncnc3scc(-c4cccs4)c23)CC1 | 992 s
Cn1c(=O)c2c(C(=O)NCC3CCN(Cc4ccc(Cl)cc4)CC3)cc(=O)n(C)c2n(C)c1=O | 626 s
COc1cccc(-c2nc(CS(=O)(=O)CC(=O)N3CCN(c4ccccn4)CC3)c(C)o2)c1 | 631 s
COc1ccc(-c2c(C)noc2NC(C)=O)cc1S(=O)(=O)N1CCN(c2ccc(F)cc2)CC1 | 843 s
CN1CCC2(CC1)CN(S(=O)(=O)N(C)C)CC2C(=O)N1CCc2ccccc21 (stereo unspecified) | 631 s
O=C(NCCNC(=O)c1ccc(N2CCOCC2)nn1)c1ccc(NC(=O)C2CC2)cc1 | 599 s
CCc1ccc(NC(=O)N2CCC(CC(=O)N3CCCCC3)CC2)cc1 | 833 s
Cc1ccc(-n2nc(C)c3nc(CCC(=O)N4CCN(c5ccccn5)CC4)c(=O)n(C)c32)cc1 | 627 s
Cc1sc(-c2noc(C(C)C)n2)cc1S(=O)(=O)N1CCC(C(=O)NC2CCCCCC2)CC1 | 1140 s
Cc1ccc(-n2c(N)cc(=O)nc2SCC(=O)Nc2nc3ccc(C)cc3s2)cc1 | 686 s
O=C(NCC1(c2cccs2)CC1)c1ccsc1 | 791 s
COc1ccc(-n2ncc3c(=O)n(Cc4nc(-c5cccc(C(F)(F)F)c5)no4)cnc32)cc1 | 1130 s
CC1CCCCN1S(=O)(=O)c1ccc2c(c1)CCC(=O)N2CC(=O)NCc1ccc(N(C)C)cc1 (stereo unspecified) | 676 s
Cc1ccc(-c2noc(CN3N=NC4C(=O)N(c5ccc(C)c(Cl)c5)C(=O)C43)n2)cc1 (stereo unspecified) | 1100 s
COC(=O)c1cccc(N2C=C(C#N)S(=O)(=O)c3ccc(C)cc32)c1 | 881 s
CCOC(=O)C1CCN(CC(=O)Nc2oc3ccccc3c(=O)c2-c2ccccc2)CC1 | 586 s
Cc1ccc(CN2C[C@@H](CO)[C@H](c3ccccn3)C2)nc1 | 559 s
CCc1ccc(NC(=O)N2CCN(CCn3c(CC)nc4cccnc43)CC2)cc1 | 632 s
CS(=O)(=O)N1CCN(CCNC(=O)NCc2cccc3ccccc23)CC1 | 570 s
CC(=O)N1c2ccc(S(=O)(=O)N3CCCCCC3)cc2CC1C(=O)NCCc1ccc(C)cc1 (stereo unspecified) | 957 s

SMILES | RP-LC retention time
Cc1nc2c(sc3nc(-c4ccccc4)ccc32)c(=O)n1CC(=O)Nc1ccc(C(C)C)cc1 | 1200 s
CCCNC(=O)C1CCN(c2ccc(SCC(=O)NCc3ccccc3)nn2)CC1 | 645 s
Cc1ccc(C)c(N2CCN(c3ccnc(SCC(=O)NC4CCCCC4)n3)CC2)c1 | 940 s
CCOCCn1c(-c2ccccc2Cl)nc2ccccc21 | 707 s
CCOC(=O)c1ccc(NC(=O)C2CCN(c3c(C(=O)N(CC)CC)cnc4snc(C)c34)CC2)cc1 | 967 s
CN(C)C(=O)c1cc2c(s1)CCC(C(=O)NCc1ccc(N3CCOCC3)cc1)C2 (stereo unspecified) | 655 s
CCc1ccc(C2=C(C)C(N3CCCN(C(=O)C4CCCO4)CC3)=NS2(=O)=O)cc1 (stereo unspecified) | 778 s
COc1nn(C)cc1C(=O)N1CCC(C(=O)NCC2CCCO2)CC1 (stereo unspecified) | 553 s
Fc1ccc(-c2ccc(CNCc3cccs3)o2)cc1 | 706 s
O=C(NC1CCCC1)C(=O)c1cccn1Cc1ccc(F)cc1 | 1020 s
Cc1ccc(CNC(=O)C2CCN(c3cn[nH]c(=O)c3)C2)o1 (stereo unspecified) | 626 s
CC(C)NC(=O)c1ccc(OCC2CCN(C(=O)c3cccs3)CC2)cc1 | 757 s
CCN1c2ccc(F)cc2C(=O)NC12CCN(C(=O)c1ccc(F)c(F)c1)CC2 | 822 s
Cc1ccc(-c2cc3c(N4CCCC(C(=O)NC(C)C)C4)nccn3n2)c(C)c1 (stereo unspecified) | 828 s
CC(CCNc1ccc(-c2nc(-c3ccc(F)cc3)no2)cn1)N1CCCCCC1 (stereo unspecified) | 768 s
CCc1noc(NC(C)=O)c1-c1ccc(C)c(S(=O)(=O)Nc2ccc(C)c(Cl)c2)c1 | 914 s
Cc1ccn2c(NC(=O)C(C)(C)Oc3ccc(Cl)cc3)c(-c3ccc(F)cc3)nc2c1 | 819 s
COc1ccc(CCNCC(O)Cn2c3c(c4ccccc42)CCN(C)C3=O)cc1OC (stereo unspecified) | 666 s
CCCNC(=O)N1CCc2cc(-c3ccc(C(=O)N4CCOCC4)cc3)ccc21 | 732 s
COc1ccc(NS(=O)(=O)c2c[nH]c3ncccc23)cc1Cl | 729 s
